Each molecule was assayed against Endothelial lipase (EL) (Homo sapiens (Human), UniProt Q9Y5X9) (assay: Endothelial lipase (EL) enzymatic assay with fluorescent substrate A10070 in DMPG vesicles).
Endothelial lipase (EL), sequence (Q9Y5X9 21-500): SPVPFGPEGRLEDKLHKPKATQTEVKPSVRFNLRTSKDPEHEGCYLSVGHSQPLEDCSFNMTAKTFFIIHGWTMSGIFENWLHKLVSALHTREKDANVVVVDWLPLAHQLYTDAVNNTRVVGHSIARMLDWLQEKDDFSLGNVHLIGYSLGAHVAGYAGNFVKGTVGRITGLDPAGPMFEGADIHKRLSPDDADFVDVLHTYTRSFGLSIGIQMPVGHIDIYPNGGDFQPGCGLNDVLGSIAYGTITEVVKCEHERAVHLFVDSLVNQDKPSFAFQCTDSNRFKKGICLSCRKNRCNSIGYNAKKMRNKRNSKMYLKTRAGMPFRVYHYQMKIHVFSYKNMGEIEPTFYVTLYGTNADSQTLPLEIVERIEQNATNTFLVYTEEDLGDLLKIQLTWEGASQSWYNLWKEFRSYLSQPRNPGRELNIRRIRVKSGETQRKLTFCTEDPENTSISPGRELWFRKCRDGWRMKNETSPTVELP
Format: biochemical
Method in brief: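 Compounds were preincubated with enzyme for 30 min at 37° C before FRET-substrate vesicles (A10070 in DMPG, 0.11 mole fraction) were added. Reaction rates were obtained from the 300–900 sec slope of fluorescence at 490/530 nm.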
In the case of Cc1ncc(-c2ccc3nc(C(C(=O)NCC(=O)NC4CC4)S(=O)(=O)c4ccc(F)cc4)sc3c2)cn1 (centres unmarked) [Example 452, N-[(cyclopropyl-carbamoyl)methyl]-2-(4-fluorobenzene-sulfonyl)-2-[6-(2-methylpyrimidin-5-yl)-1,3-benzothiazol-2-yl]acetamide], the IC50 is reported as 39 nM. With O=C1Cc2ccc(-c3ccc4nc(C(C(=O)NCC(=O)NC5CC5)S(=O)(=O)c5ccc(F)cc5)sc4c3)cc2N1 (centres unmarked) [Example 453, N-[(cyclopropyl-carbamoyl)methyl]-2-(4-fluorobenzene-sulfonyl)-2-[6-(2-oxo-2,3-dihydro-1H-indol-6-yl)-1,3-benzothiazol-2-yl]acetamide] the IC50 was 67 nM. COc1cc(-c2ccc3nc(C(C(=O)NCC(=O)NC4CC4)S(=O)(=O)c4ccc(F)cc4)sc3c2)ccn1 (centres unmarked) [Example 454, N-[(cyclopropyl-carbamoyl)methyl]-2-(4-fluorobenzene-sulfonyl)-2-[6-(2-methoxypyridin-4-yl)-1,3-benzothiazol-2-yl]acetamide] showed an IC50 of 73 nM. With CC(C)OCCNC(=O)CNC(=O)C(c1nc2ccc(-c3ccc(F)nc3)cc2s1)S(=O)(=O)c1ccc(F)cc1 (centres unmarked) [Example 455, 2-(4-fluorobenzene-sulfonyl)-2-[6-(6-fluoropyridin-3-yl)-1,3-benzothiazol-2-yl]-N-({[2-(propan-2-yloxy)ethyl]carbamoyl}methyl)acetamide] the IC50 was 100 nM. Molecule COc1ccc(-c2ccc3nc(C(C(=O)NCC(=O)NC4CC4)S(=O)(=O)c4ccc(F)cc4)sc3c2)cn1 (centres unmarked) [Example 456, N-[(cyclopropyl-carbamoyl)methyl]-2-(4-fluorobenzene-sulfonyl)-2-[6-(6-methoxypyridin-3-yl)-1,3-benzothiazol-2-yl]acetamide] has an IC50 of 109 nM. O=C(CNC(=O)C(c1nc2ccc(-c3ccc(F)nc3)cc2s1)S(=O)(=O)c1ccc(F)cc1)NC1CC1 (centres unmarked) [Example 457, N-[(cyclopropyl-carbamoyl)methyl]-2-(4-fluorobenzene-sulfonyl)-2-[6-(6-fluoropyridin-3-yl)-1,3-benzothiazol-2-yl]acetamide] was tested, and the IC50 was 24 nM. For Cn1ccc(-c2ccc3nc(C(C(=O)NCC(=O)NC4CC4)S(=O)(=O)c4ccc(F)cc4)sc3c2)cc1=O (centres unmarked) [Example 458, N-[(cyclopropyl-carbamoyl)methyl]-2-(4-fluorobenzene-sulfonyl)-2-[6-(1-methyl-2-oxo-1,2-dihydropyridin-4-yl)-1,3-benzothiazol-2-yl]acetamide], the IC50 was 32 nM. Cn1nccc1-c1ccc2nc(C(C(=O)NCC(=O)NC3CC3)S(=O)(=O)c3ccc(F)cc3)sc2c1 (centres unmarked) [Example 459, N-[(cyclopropyl-carbamoyl)methyl]-2-(4-fluorobenzene-sulfonyl)-2-[6-(1-methyl-1H-pyrazol-5-yl)-1,3-benzothiazol-2-yl]acetamide] showed an IC50 of 18 nM. For O=C(CNC(=O)C(c1nc2ccc(-c3cncnc3)cc2s1)S(=O)(=O)c1ccc(F)cc1)NC1CC1 (centres unmarked) [Example 460, N-[(cyclopropyl-carbamoyl)methyl]-2-(4-fluorobenzene-sulfonyl)-2-[6-(pyrimidin-5-yl)-1,3-benzothiazol-2-yl]acetamide], the IC50 was 47 nM. For COCCNC(=O)CNC(=O)C(c1nc2ccc(-c3ccc(F)nc3)cc2s1)S(=O)(=O)c1ccc(F)cc1 (centres unmarked) [Example 461, 2-(4-fluorobenzene-sulfonyl)-2-[6-(6-fluoropyridin-3-yl)-1,3-benzothiazol-2-yl]-N-{[(2-methoxyethyl)carbamoyl]methyl} acetamide], the IC50 was 150 nM. COCCNC(=O)CNC(=O)C(c1nc2ccc(-c3ccc(C(=O)NCCOC)cc3)cc2s1)S(=O)(=O)c1ccc(F)cc1 (centres unmarked) [Example 462, 4-{2-[(4-fluorobenzene-sulfonyl)({[(2-methoxyethyl)carbamoyl]methyl}carbamoyl)methyl]-1,3-benzothiazol-6-yl}-N-(2-methoxyethyl) benzamide] was tested, and the IC50 was 4 nM.
